From US9056865B2, “Pyridine-2-derivatives as smoothened receptor modulators” (Pfizer Inc., priority 2010, dated 2015)

Assays:
human Smo = human Smo (Homo sapiens (Human), UniProt Q99835); assay: Smo radioligand competition binding assay; conditions: for inhibition at 0.05 µM: 0.05 μM test compound, read-out: Smo % inh. @ 0.05 μM
In short: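 Membranes from HEK293 cells expressing surface human Smo 181-781 (40 μg protein/well) incubated 2 h at room temperature with test compound and tritiated Smo antagonist (3 nM), pH 7.5 Tris buffer; filtration and scintillation counting. Non-specific binding defined with 30 μM cold antagonist; IC50 from four-parameter sigmoidal fit.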

Gli-Luc/MEF cells = assay: Gli-Luc/MEF assay; format: cell-based, mouse; conditions: Mus musculus, MEF; Shh-stimulated luciferase, 48 hours
In short: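 Mouse embryonic fibroblasts from Gli-Luc transgenic mice (luciferase under Gli response element) dosed with compounds (final […], 3-fold series), then stimulated with recombinant mouse Shh at final 2 μg/mL. After 48 h at 37 °C, luminescence read by Bright-Glo; IC50 from inhibition of Shh-induced signal.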

human Smo, sequence (Q99835 181-787): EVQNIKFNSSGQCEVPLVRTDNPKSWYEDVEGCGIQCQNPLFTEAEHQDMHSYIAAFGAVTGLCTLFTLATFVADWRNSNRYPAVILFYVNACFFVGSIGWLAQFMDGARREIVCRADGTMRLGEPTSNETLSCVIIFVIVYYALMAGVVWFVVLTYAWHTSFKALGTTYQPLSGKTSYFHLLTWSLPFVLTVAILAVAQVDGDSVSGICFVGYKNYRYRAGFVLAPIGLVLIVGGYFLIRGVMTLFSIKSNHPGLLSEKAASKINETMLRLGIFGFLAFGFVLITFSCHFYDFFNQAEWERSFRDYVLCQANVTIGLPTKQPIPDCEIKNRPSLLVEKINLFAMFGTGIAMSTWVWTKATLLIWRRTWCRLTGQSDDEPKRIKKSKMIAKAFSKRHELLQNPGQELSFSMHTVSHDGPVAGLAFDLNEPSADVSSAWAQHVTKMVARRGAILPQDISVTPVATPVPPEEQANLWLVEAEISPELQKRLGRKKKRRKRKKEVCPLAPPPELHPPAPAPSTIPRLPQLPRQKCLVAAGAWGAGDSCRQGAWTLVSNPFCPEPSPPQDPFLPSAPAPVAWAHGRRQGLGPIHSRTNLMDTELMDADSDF

| SMILES | IC50 (human Smo) [nM] | inhibition at 0.05 µM (human Smo) [%] | IC50 (Gli-Luc/MEF cells) [nM] |
| --- | --- | --- | --- |
| Cc1cccnc1-c1cc(N2CCC(C(=O)N(C)[C@@H]3CS(=O)(=O)C[C@H]3O)CC2)ncc1Cl [Example A-70, 1-(5′-chloro-3-methyl-2,4′-bipyridin-2′-yl)-N-[(3S,4S)-4-hydroxy-1,1-dioxidotetrahydro-3-thienyl]-N-methylpiperidine-4-carboxamide] | 42.4 | 105 | 27.3 |
| Cc1cccnc1-c1cc(N2CCC(C(=O)NC3CCCCC3O)CC2)ncc1Cl (stereo not drawn) [Example A-72, 1-(5′-chloro-3-methyl-2,4′-bipyridin-2′-yl)-N-(2-hydroxycyclohexyl)piperidine-4-carboxamide] | 28.3 | 96.3 | 22.5 |
| Cc1cccnc1-c1cc(N2CCC(C(=O)NCCc3nc4cccnc4n3C)CC2)ncc1Cl [Example A-73, 1-(5′-chloro-3-methyl-2,4′-bipyridin-2′-yl)-N-[2-(3-methyl-3H-imidazo[4,5-b]pyridin-2-yl)ethyl]piperidine-4-carboxamide] | 154 | 76.1 | 55.8 |
| Cc1cccnc1-c1cc(N2CCC(C(=O)NCC3CN(CC4CC4)C(=O)CO3)CC2)ncc1Cl (stereo not drawn) [Example A-74, 1-(5′-chloro-3-methyl-2,4′-bipyridin-2′-yl)-N-{[4-(cyclopropylmethyl)-5-oxomorpholin-2-yl]methyl}piperidine-4-carboxamide] | 25.5 | 97.8 | 23 |
| Cc1cccnc1-c1cc(N2CCC(C(=O)Nc3cccc(CO)n3)CC2)ncc1Cl [Example A-75, 1-(5′-chloro-3-methyl-2,4′-bipyridin-2′-yl)-N-[6-(hydroxymethyl)pyridin-2-yl]piperidine-4-carboxamide] | 93.3 | 88.6 | 47.9 |
| Cc1cccnc1-c1cc(N2CCC(C(=O)NC3(CO)CCCC3)CC2)ncc1Cl [Example A-76, 1-(5′-chloro-3-methyl-2,4′-bipyridin-2′-yl)-N-[1-(hydroxymethyl)cyclopentyl]piperidine-4-carboxamide] | 25.8 | 91.6 | 18.3 |
| Cc1cccnc1-c1cc(N2CCC(C(=O)NC3CCOCC3)CC2)ncc1Cl [Example A-77, 1-(5′-chloro-3-methyl-2,4′-bipyridin-2′-yl)-N-(tetrahydro-2H-pyran-4-yl)piperidine-4-carboxamide] | 52.5 | 87.7 | 48.4 |
| Cc1cccnc1-c1cc(N2CCC(C(=O)NC3CCOC3)CC2)ncc1Cl (stereo not drawn) [Example A-78, 1-(5′-chloro-3-methyl-2,4′-bipyridin-2′-yl)-N-(tetrahydrofuran-3-yl)piperidine-4-carboxamide] | 295 | 70.1 | 87.3 |
| COc1ccccc1CNC(=O)C1CCN(c2cc(-c3ncccc3C)c(Cl)cn2)CC1 [Example A-79, 1-(5′-chloro-3-methyl-2,4′-bipyridin-2′-yl)-N-(2-methoxybenzyl)piperidine-4-carboxamide] | 161 | 78.4 | 30.5 |
| Cc1cccnc1-c1cc(N2CCC(C(=O)NC3CCS(=O)(=O)CC3)CC2)ncc1Cl [Example A-80, 1-(5′-chloro-3-methyl-2,4′-bipyridin-2′-yl)-N-(1,1-dioxidotetrahydro-2H-thiopyran-4-yl)piperidine-4-carboxamide] | 33.6 | 101 | 16.5 |
| Cc1cccnc1-c1cc(N2CCC(C(=O)N[C@@H]3CCCC[C@H]3O)CC2)ncc1Cl [Example A-81, 1-(5′-chloro-3-methyl-2,4′-bipyridin-2′-yl)-N-[(1R,2R)-2-hydroxycyclohexyl]piperidine-4-carboxamide] | 32.6 | 97.9 | 15.7 |
| Cc1cccnc1-c1cc(N2CCC(C(=O)N3CCN(c4ccc(O)nn4)CC3)CC2)ncc1Cl [Example A-82, 6-(4-{[1-(5′-chloro-3-methyl-2,4′-bipyridin-2′-yl)piperidin-4-yl]carbonyl}piperazin-1-yl)pyridazin-3-ol] | 39.2 | 92.6 | 38.8 |
| Cc1cccnc1-c1cc(N2CCC(C(=O)NCC3CCCCO3)CC2)ncc1Cl (stereo not drawn) [Example A-83, 1-(5′-chloro-3-methyl-2,4′-bipyridin-2′-yl)-N-(tetrahydro-2H-pyran-2-ylmethyl)piperidine-4-carboxamide] | 138 | 78.9 | 48.5 |
| Cc1cccnc1-c1cc(N2CCC(C(=O)NC3CCOC4(CCN(C)CC4)C3)CC2)ncc1Cl (stereo not drawn) [Example A-84, 1-(5′-chloro-3-methyl-2,4′-bipyridin-2′-yl)-N-(9-methyl-1-oxa-9-azaspiro[5.5]undec-4-yl)piperidine-4-carboxamide] | 283 | 71.5 | 92 |
| Cc1cccnc1-c1cc(N2CCC(C(=O)N3CCCC[C@H]3CO)CC2)ncc1Cl [Example A-85, [(2S)-1-{[1-(5′-chloro-3-methyl-2,4′-bipyridin-2′-yl)piperidin-4-yl]carbonyl}piperidin-2-yl]methanol] | 42.4 | 92.7 | 116 |
| Cc1cccnc1-c1cc(N2CCC(C(=O)N3CCCC(O)C3CO)CC2)ncc1Cl (stereo not drawn) [Example A-86, 1-{[1-(5′-chloro-3-methyl-2,4′-bipyridin-2′-yl)piperidin-4-yl]carbonyl}-2-(hydroxymethyl)piperidin-3-ol] | 112 | 81.5 | 116 |
| Cc1cccnc1-c1cc(N2CCC(C(=O)NCCc3c[nH]cn3)CC2)ncc1Cl [Example A-87, 1-(5′-chloro-3-methyl-2,4′-bipyridin-2′-yl)-N-[2-(1H-imidazol-4-yl)ethyl]piperidine-4-carboxamide] | 134 | 81.8 | 123 |
| Cc1cccnc1-c1cc(N2CCC(C(=O)Nc3cnn(C)n3)CC2)ncc1Cl [Example A-88, 1-(5′-chloro-3-methyl-2,4′-bipyridin-2′-yl)-N-(2-methyl-2H-1,2,3-triazol-4-yl)piperidine-4-carboxamide] | 49 | 85.6 | 53 |
| Cc1cccnc1-c1cc(N2CCC(C(=O)N[C@H]3CC[C@H](CO)CC3)CC2)ncc1Cl [Example A-89, 1-(5′-chloro-3-methyl-2,4′-bipyridin-2′-yl)-N-[trans-4-(hydroxymethyl)cyclohexyl]piperidine-4-carboxamide] | 28.5 | 94.6 | 24.4 |
| CC(C)(O)CC(=O)N1CCN(c2ccc(Cl)c(-c3ccccn3)n2)CC1 [Example A-90, 4-[4-(3-chloro-2,2′-bipyridin-6-yl)piperazin-1-yl]-2-methyl-4-oxobutan-2-ol] | 111 | 82.5 | 66.9 |
| NS(=O)(=O)CC1CCN(c2ccc(Cl)c(-c3ccccn3)n2)CC1 [Example A-91, 1-[1-(3-chloro-2,2′-bipyridin-6-yl)piperidin-4-yl]methanesulfonamide] | 26.3 | 92.7 | 28.6 |
| CS(=O)(=O)CC1CCN(c2ncc(Cl)c(-c3ccccn3)n2)CC1 [Example A-92, 5-chloro-2-{4-[(methylsulfonyl)methyl]piperidin-1-yl}-4-pyridin-2-ylpyrimidine] | 132 | 79.8 | 59 |
| Cc1cccnc1-c1cc(N2CCN(C(=O)CCS(C)(=O)=O)CC2)ncc1Cl [Example A-93, 5′-chloro-3-methyl-2′-{4-[3-(methylsulfonyl)propanoyl]piperazin-1-yl}-2,4′-bipyridine] | 9.84 | 97.5 | 12.4 |
| Cc1cnc(-c2cc(N3CCC(O)CC3)ncc2Cl)c(C)c1 [Example A-94, 1-(5′-chloro-3,5-dimethyl-2,4′-bipyridin-2′-yl)piperidin-4-ol] | 44.2 | 88 | 28.4 |
| Cc1cccnc1-c1cc(N2CCC(NC(=O)CCS(C)(=O)=O)CC2)ncc1Cl [Example A-95, N-[1-(5′-chloro-3-methyl-2,4′-bipyridin-2′-yl)piperidin-4-yl]-3-(methylsulfonyl)propanamide] | 37 | 94 | 32 |
| Cc1cccnc1-c1cc(N2CCC(CNCCS(C)(=O)=O)CC2)ncc1Cl [Example A-96, N-{[1-(5′-chloro-3-methyl-2,4′-bipyridin-2′-yl)piperidin-4-yl]methyl}-2-(methylsulfonyl)ethanamine] | 102 | 84.1 | 62.5 |
| Cc1cccnc1-c1nc(N2CCC(CS(C)(=O)=O)CC2)ncc1Cl [Example A-97, 5-chloro-4-(3-methylpyridin-2-yl)-2-{4-[(methylsulfonyl)methyl]piperidin-1-yl}pyrimidine] | 30 | 95.4 | 13.3 |
| Cc1cnc(-c2cc(N3CCC(CS(C)(=O)=O)CC3)ncc2Cl)c(C)c1 [Example A-98, 5′-chloro-3,5-dimethyl-2′-{4-[(methylsulfonyl)methyl]piperidin-1-yl}-2,4′-bipyridine] | 12.4 | 96.6 | 9.4 |
| CS(=O)(=O)CCC(=O)N1CCN(c2ccc(Cl)c(-c3ccccn3)n2)CC1 [Example A-99, 3-chloro-6-{4-[3-(methylsulfonyl)propanoyl]piperazin-1-yl}-2,2′-bipyridine] | 33.1 | 94.4 | 23.9 |
| CC(=O)N1CCN(c2cc(-c3ncc(C)cc3C)c(Cl)cn2)CC1 [Example A-100, 2′-(4-acetylpiperazin-1-yl)-5′-chloro-3,5-dimethyl-2,4′-bipyridine] | 113 | 85.6 | 50.2 |
